Laboratory results taken from patent US10703735B2, “4-phenyl-coumarin derivatives, processes for their preparation and uses thereof for the treatment of cancer” (Lead Discovery Center GmbH, priority 2018, dated 2020).

Tests used:
[1] = tested on: mitochondrial transcription (7S RNA) in HeLa cells; experiment: Quantitative real time-PCR assay of inhibition of mitochondrial transcription (7S RNA) in HeLa cells; assay type: cell-based; conditions: Homo sapiens, 4 h incubation, Example 5, read-out: cellular qPCR assay IMT (IC-50)
Experimental: Quantitative real-time PCR (qRT-PCR), based on the TaqMan™ (Thermo Fisher Scientific, Waltham Mass.) technology, was carried out essentially as described in (Heid et al. 1996). HeLa cells were plated one day before compound treatment in RPMI medium supplemented with 10% Fetal Calf Serum and 2 mM L-glutamine. Cells were incubated with dilution series of compounds or vehicle (DMSO) for 4 h, prior to harvest and extraction of the RNA using the RNeasy Mini Kit (Qiagen, Hilden D), according to the manufacturer's instructions. RNA concentrations were measured spectroscopically, using a NanoDrop-2000 (Thermo Fisher Scientific, Waltham Mass.) and normalized prior to cDNA synthesis, using a ‘High-Capacity cDNA Reverse Transcription Kit’ (Thermo Fisher Scientific, Waltham Mass.). qRT-PCR was carried out using the ‘TaqMan Fast Advance Master Mix’ (Thermo Fisher Scientific, Waltham Mass.) on a 7500 Fast Real-Time PCR machine (Applied Biosystems, Foster City Calif.)
For these measurements, three genes were used to compare the effect of the scrutinized compounds in relation to their concentration. The POLRMT-gene was used to detect potential influences on nuclear transcription. Mitochondrial transcription in vivo was monitored by measurements 7S RNA. The TBP (TATA-box binding protein) gene was employed as the control (housekeeping gene) during qRT-PCR. The short-lived mitochondrial 7S RNA, which is not post-transcriptionally stabilized, allowed us to monitor rapid changes in mitochondrial transcription activity following compound addition. Biological triplicates were analyzed using the comparative CT Method (ΔΔCt) method (Bubner et al. 2004) and reported as Rq % values (Rq=Relative quantification=2-ΔΔCt).

[2] = target: mitochondrial RNA-polymerase (POLRMT) (Mus musculus, UniProt Q8BKF1); experiment: Homogeneous TR-FRET assay for mitochondrial transcription activity; assay type: biochemical; conditions: homogeneous TR-FRET assay according to Example 4; read-out: mitochondrial transcription activity (IC-50)
Sequence of mitochondrial RNA-polymerase (POLRMT) (Q8BKF1 42-1207): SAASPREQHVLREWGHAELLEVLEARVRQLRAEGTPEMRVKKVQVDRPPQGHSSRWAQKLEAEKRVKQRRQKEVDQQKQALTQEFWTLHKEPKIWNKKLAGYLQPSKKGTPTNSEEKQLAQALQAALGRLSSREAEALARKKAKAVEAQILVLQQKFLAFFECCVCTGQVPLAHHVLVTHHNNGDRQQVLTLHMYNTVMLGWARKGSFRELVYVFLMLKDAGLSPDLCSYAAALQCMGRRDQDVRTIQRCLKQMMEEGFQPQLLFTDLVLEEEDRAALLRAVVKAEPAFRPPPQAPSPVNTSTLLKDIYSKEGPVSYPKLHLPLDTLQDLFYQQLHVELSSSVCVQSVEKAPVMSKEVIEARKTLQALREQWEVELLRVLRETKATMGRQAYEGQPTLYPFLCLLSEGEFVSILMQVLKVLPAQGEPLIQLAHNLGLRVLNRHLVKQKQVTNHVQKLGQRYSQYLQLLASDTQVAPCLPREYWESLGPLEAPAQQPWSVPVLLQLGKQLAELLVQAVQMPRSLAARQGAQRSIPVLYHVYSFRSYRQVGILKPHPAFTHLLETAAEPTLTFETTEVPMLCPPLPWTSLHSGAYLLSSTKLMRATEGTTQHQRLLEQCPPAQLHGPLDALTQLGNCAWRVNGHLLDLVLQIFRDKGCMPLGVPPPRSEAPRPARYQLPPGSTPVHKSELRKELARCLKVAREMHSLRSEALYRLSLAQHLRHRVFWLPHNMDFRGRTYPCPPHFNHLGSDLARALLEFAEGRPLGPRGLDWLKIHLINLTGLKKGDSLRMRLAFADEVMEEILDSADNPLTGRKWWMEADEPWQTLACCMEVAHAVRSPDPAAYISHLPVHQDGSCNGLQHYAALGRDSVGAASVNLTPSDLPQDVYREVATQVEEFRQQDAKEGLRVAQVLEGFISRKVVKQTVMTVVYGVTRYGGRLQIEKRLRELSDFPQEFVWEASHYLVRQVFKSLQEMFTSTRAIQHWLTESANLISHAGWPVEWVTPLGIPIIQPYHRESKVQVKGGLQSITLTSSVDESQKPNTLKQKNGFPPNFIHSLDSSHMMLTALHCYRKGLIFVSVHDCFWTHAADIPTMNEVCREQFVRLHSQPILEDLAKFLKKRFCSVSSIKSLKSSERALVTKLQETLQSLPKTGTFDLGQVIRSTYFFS
Text: The TR-FRET assay was basically conducted as described in WO 2016/193231A1, especially as described in example 1 (hereby incorporated by reference). With respect to the background of the mitochondrial transcription it is referred to Falkenberg et al. (2002) and Posse et al. (Posse et al. 2015). The method monitors the activity of mitochondrial RNA-polymerase via detection of the formation of its product, a 407 bp long RNA sequence. Detection of the product is facilitated by hybridization of two DNA-oligonucleotide probes to specific and adjacent sequences within the RNA product sequence. Upon annealing of the probes, two fluorophores that are coupled directly to an acceptor nucleotide probe (ATT0647, 5′) or introduced via a coupled streptavidin interacting with a biotinylated donor nucleotide probe on the other side (Europium cryptate, 3) are brought into sufficient proximity to serve as a fluorescence-donor-acceptor pair as generally described in Walters and Namchuk (2003). Thus, a FRET signal at 665 nm is generated upon excitation at 340 nm.
Briefly, the protocol described here was applied for screening and activity determination in a low-volume 384-well microtiter plate with non-binding surface. For high-throughput application in the 1536-well microtiter plate format, volumes of the reagent mixes were adjusted, maintaining the volumetric ratio. Proteins POLRMT (NM_172551.3), TFAM (NM_009360.4) and TFB2M (NM_008249.4) were diluted from their stocks to working concentrations of 150 nM, 1.8 μM and 330 nM respectively, in a dilution buffer containing 100 mM Tris-HCl pH 8.0, 200 mM NaCl, 10% (v/v) glycerole, 2 mM glutathione (GSH), 0.5 mM EDTA and 0.1 mg/mL BSA. Protein dilutions and template DNA, comprising a pUC18 plasmid encoding the mitochondrial light strand promoter, restriction linearized proximal to the promoter 3′-end (pUC-LSP), were mixed at the twofold final assay-concentration in a reaction buffer, containing 10 mM Tris-HCl pH 7.5, 10 mM MgCl2, 40 mM NaCl, 2 mM GSH, 0.01% (w/v) Tween-20 and 0.1 mg/mL BSA.
5 μL of this mix were dispensed, depending on the chosen microtiter plate format, using multi-channel pipettes or a Multidrop® dispenser (Thermo Fisher Scientific, Waltham Mass.) into the wells of a microtiter plate and incubated at room temperature (RT) for 10 min. Chemical compounds under scrutiny in the assay were applied using contact-free acoustic droplet-dispensing (Echo520® Labcyte Inc., Sunnyvale Calif.) from 10 mM compound stocks in 100% DMSO, to a final concentration of 10 μM or in serial dilution series of the required concentration range. Equal amounts of DMSO without any compound were added to positive control samples, followed by an incubation step at RT for 10 min.
The enzymatic reaction was started by the addition of 5 μL of a mix of dNTPs in reaction buffer to a final concentration of 500 μM each. No nucleotide mix was added to negative control samples. The content of the wells was mixed using a VarioTeleshaker™ (Thermo Fisher Scientific, Waltham Mass.) at 1500 rpm for 45 sec after which the microtiter plate was centrifuged at 500×g for 1 min. The samples were incubated for 2 h at RT with humidity control to avoid evaporation. The detection reagents were prepared in a buffer that was composed, such that the enzymatic reaction was terminated due to chelating of Mg-ions and increased ionic strength, containing 50 mM Tris-HCl pH 7.5, 700 mM NaCl, 20 mM EDTA, and 0.01% (w/v) Tween-20. Importantly Eu-cryptate-coupled streptavidin had to be preincubated with a 100-fold molar excess of a random sequence oligonucleotide for 10 min at RT in the dark to block unspecific binding of single stranded RNA to the protein. Subsequently, the blocked streptavidin(-Eu) was mixed with the DNA-probes on ice and kept away from light until use. […]

IC50 [1]	IC50 [2]	SMILES
< 10 nM	100 to 1000 nM	CC(Oc1ccc2c(-c3ccccc3)cc(=O)oc2c1)C(=O)OC(C)(C)C (stereo not shown) [Compound 1, tert-butyl 2-(2-oxo-4-phenyl-chromen-7-yl)oxypropanoate]
10 to 50 nM	100 to 1000 nM	CC(Oc1ccc2c(-c3ccccc3)cc(=O)oc2c1)C(=O)N(C)C (stereo not shown) [Compound 2, N,N-dimethyl-2-(2-oxo-4-phenyl-chromen-7-yl)oxy-propanamide]
10 to 50 nM	20 to 100 nM	CCOC(=O)C(C)Oc1ccc2c(-c3cccc(F)c3)cc(=O)oc2c1 (stereo not shown) [Compound 7, ethyl 2-[4-(3-fluorophenyl)-2-oxo-chromen-7-yl]oxypropanoate]
50 to 500 nM	100 to 1000 nM	CC(C)NC(=O)C(C)Oc1ccc2c(-c3ccccc3)cc(=O)oc2c1 (stereo not shown) [Compound 12, N-isopropyl-2-(2-oxo-4-phenyl-chromen-7-yl)oxy-propanamide]
50 to 500 nM	100 to 1000 nM	COC(=O)C1CCCN(C(=O)C(C)Oc2ccc3c(-c4ccccc4)cc(=O)oc3c2)C1 (stereo not shown) [Compound 15, methyl 1-[2-(2-oxo-4-phenyl-chromen-7-yl)oxypropanoyl]piperidine-3-carboxylate]
< 10 nM	< 20 nM	CC(Oc1ccc2c(-c3ccccc3)cc(=O)oc2c1)C(=O)N1CCCC(C#N)C1 (stereo not shown) [Compound 19, 1-[2-(2-oxo-4-phenyl-chromen-7-yl)oxypropanoyl]piperidine-3-carbonitrile]
50 to 500 nM	1000 to 10000 nM	CCNC(=O)C(C)Oc1ccc2c(-c3ccccc3)cc(=O)oc2c1 (stereo not shown) [Compound 30, N-ethyl-2-(2-oxo-4-phenyl-chromen-7-yl)oxy-propanamide]
50 to 500 nM	100 to 1000 nM	CC(Oc1ccc2c(-c3ccccc3)cc(=O)oc2c1)C(=O)N1CCCC1 (stereo not shown) [Compound 31, 7-(1-methyl-2-oxo-2-pyrrolidin-1-yl-ethoxy)-4-phenyl-chromen-2-one]
10 to 50 nM	100 to 1000 nM	CCOC(=O)C(C)(C)Oc1ccc2c(-c3ccccc3)cc(=O)oc2c1 [Compound 32, ethyl 2-methyl-2-(2-oxo-4-phenyl-chromen-7-yl)oxy-propanoate]
< 10 nM	100 to 1000 nM	CCOC(=O)[C@@H](C)Oc1ccc2c(-c3ccccc3)cc(=O)oc2c1 [Compound 33, ethyl (2R)-2-(2-oxo-4-phenyl-chromen-7-yl)oxypropanoate]
	1000 to 10000 nM	O=C(COc1cc2oc(=O)cc(-c3ccccc3)c2cc1Cl)NCCN1CCOCC1 [Compound 83, 2-(6-chloro-2-oxo-4-phenyl-chromen-7-yl)oxy-N-(2-morpholinoethyl)acetamide]
	1000 to 10000 nM	NC(=O)COc1cc2oc(=O)cc(-c3ccccc3)c2cc1Cl [Compound 84, 2-(6-chloro-2-oxo-4-phenyl-chromen-7-yl)oxyacetamide]
	1000 to 10000 nM	O=C(O)C1CCCN(C(=O)COc2cc3oc(=O)cc(-c4ccccc4)c3cc2Cl)C1 (stereo not shown) [Compound 85, 1-[2-(6-chloro-2-oxo-4-phenyl-chromen-7-yl)oxyacetyl]piperidine-3-carboxylic acid]
	1000 to 10000 nM	O=C(COc1cc2oc(=O)cc(-c3ccccc3)c2cc1Cl)NC1CCCCCCC1 [Compound 86, 2-(6-chloro-2-oxo-4-phenyl-chromen-7-yl)oxy-N-cyclooctyl-acetamide]
	1000 to 10000 nM	CCOC(=O)C(C)Oc1cc(F)c2c(-c3ccccc3)cc(=O)oc2c1 (stereo not shown) [Compound 87, ethyl 2-(5-fluoro-2-oxo-4-phenyl-chromen-7-yl)oxypropanoate]
	1000 to 10000 nM	O=C(O)COc1cc2oc(=O)cc(-c3ccccc3)c2cc1Cl [Compound 88, 2-(6-chloro-2-oxo-4-phenyl-chromen-7-yl)oxyacetic acid]
	1000 to 10000 nM	CC(Oc1cc2oc(=O)cc(-c3ccccc3)c2cc1Cl)C(=O)NC[C@H]1CC[C@H](C(=O)O)CC1 (stereo partly shown) [Compound 89, 4-[[2-(6-chloro-2-oxo-4-phenyl-chromen-7-yl)oxypropanoylamino]methyl]cyclohexanecarboxylic acid]
	1000 to 10000 nM	O=C(COc1cc2oc(=O)cc(-c3ccccc3)c2cc1Cl)NCC(O)c1ccccc1 (stereo not shown) [Compound 90, 2-(6-chloro-2-oxo-4-phenyl-chromen-7-yl)oxy-N-(2-hydroxy-2-phenyl-ethyl)acetamide]
	1000 to 10000 nM	COC(=O)COc1ccc2c(-c3ccccc3)cc(=O)oc2c1C [Compound 91, methyl 2-(8-methyl-2-oxo-4-phenyl-chromen-7-yl)oxyacetate]
	1000 to 10000 nM	CCCOC(=O)COc1cc2oc(=O)cc(-c3ccccc3)c2cc1Cl [Compound 92, propyl 2-(6-chloro-2-oxo-4-phenyl-chromen-7-yl)oxyacetate]
	1000 to 10000 nM	CC(Oc1ccc2c(-c3ccccc3)cc(=O)oc2c1)C(=O)OCc1ccccc1 (stereo not shown) [Compound 93, benzyl 2-(2-oxo-4-phenyl-chromen-7-yl)oxypropanoate]
	1000 to 10000 nM	Cc1c(OCC(=O)OC(C)(C)C)ccc2c(-c3ccccc3)cc(=O)oc12 [Compound 94, tert-butyl 2-(8-methyl-2-oxo-4-phenyl-chromen-7-yl)oxyacetate]
	1000 to 10000 nM	O=C(COc1cc2oc(=O)cc(-c3ccccc3)c2cc1Cl)NC1C=CS(=O)(=O)C1 (stereo not shown) [Compound 95, 2-(6-chloro-2-oxo-4-phenyl-chromen-7-yl)oxy-N-(1,1-dioxo-2,3-dihydrothiophen-3-yl)acetamide]
	1000 to 10000 nM	CC(Oc1ccc2c(-c3ccccc3)cc(=O)oc2c1)C(=O)NC(C(=O)O)c1ccccc1 (stereo not shown) [Compound 96, 2-[2-(2-oxo-4-phenyl-chromen-7-yl)oxypropanoylamino]-2-phenyl-acetic acid]
	1000 to 10000 nM	CCCc1cc2c(-c3ccccc3)cc(=O)oc2cc1OC(C)C(=O)O (stereo not shown) [Compound 97, 2-(2-oxo-4-phenyl-6-propyl-chromen-7-yl)oxypropanoic acid]
	1000 to 10000 nM	O=C(COc1cc2oc(=O)cc(-c3ccccc3)c2cc1Cl)NC[C@H]1CC[C@H](C(=O)O)CC1 [Compound 98, 4-[[[2-(6-chloro-2-oxo-4-phenyl-chromen-7-yl)oxyacetyl]amino]methyl]cyclohexanecarboxylic acid]
	1000 to 10000 nM	O=C(COc1cc2oc(=O)cc(-c3ccccc3)c2cc1Cl)NCc1ccccn1 [Compound 99, 2-(6-chloro-2-oxo-4-phenyl-chromen-7-yl)oxy-N-(2-pyridylmethyl)acetamide]
